Experimental findings from patent US20260273084A1, “ANTIBODY-DRUG CONJUGATES” (ADC THERAPEUTICS SA, priority 2023, published 2026) are described below.

The series is described as follows: Aggregation studies: % monomer by SEC after conjugation to test monoclonal antibody. The note with it: 95% monomer or greater assessed as low aggregation. Type of series: physicochemical. As for the experimental part: Aggregation is a process in which molecules self-associate with each other. In the context of the present invention, aggregation levels are assessed during the conjugation of a linker construct to an antibody. During conjugation, aggregation is quantified in terms of percentage monomer content. High percentage monomer values typically equate to a lower degree of aggregation. Percentage monomer values of 93% or 95% or higher typically mean negligible levels of aggregation or none, whereas values below this threshold typically translate to higher levels of aggregation.
2 mg of test monoclonal antibody at 8.87 mg/mL was pH adjusted with 5% 0.5 M Tris, 0.025 M EDTA, pH 8.5 and reduced with 2.3 mol. eq TCEP and then conjugated with 6 mol. eq drug linker. […] Percentage monomer values of 95% or greater are assessed as low aggregation.
Aggregation levels were assessed during the conjugation to the test antibody.
During conjugation, we are ideally targeting a monomer content or percentage monomer of 95% or above. Low percentage monomer values usually translate to a higher degree of aggregation. One could therefore agree that percentage monomer values of 95% or higher mean very low levels of aggregation or none, whereas values below this threshold often translate to higher levels of aggregation.

Each structure is given as a SMILES string. Numbered stars: 1 amine (or outer) side, 2 acyl side, 3 side chain; on linkers, the order of the positions; unused ones are H or OH. Square brackets hold non-standard residues; d marks the D form. Peptide text beside a SMILES is read from it. * marks the point of attachment. Exatecan = CC[C@@]1(O)C(=O)OCc2c1cc1n(c2=O)Cc2c-1nc1cc(F)c(C)c3c1c2[C@@H](N*)CC3; Propanoyl(3-maleimido) = O=C1C=CC(=O)N1CCC(=O)*; PABC = O=C(OCc1ccc(N[*:1])cc1)[*:2]

For `CC[C@@]1(O)C(=O)OCc2c1cc1n(c2=O)Cc2c-1nc1cc(F)c(C)c3c1c2[C@@H](NC(=O)OCc1ccc(NC(=O)[C@H](C)NC(=O)[C@@H](NC(=O)CNC(=O)CNC(=O)CNC(=O)CNC(=O)CNC(=O)CCN2C(=O)C=CC2=O)C(C)C)cc1)CC3` [Mal-Gly5-VA-PABC-Exatecan] ({Propanoyl(3-maleimido)}-GGGGGVA[PABC]-Exatecan), the “Aggregation (grade in words)” value was “None”.
